Article PMC9293227 (Clinical Pharmacology in Drug Development, 2021)
Read-outs that look alike come from different tables or passages of the source. Values belong to the compound of their own block, whether it stands above or below them.

Assays:
[1] = for AUCinf (molar ratio of 2‐hydroxy‐atorvastatin to atorvastatin) / Cmax (molar ratio of 2‐hydroxy‐atorvastatin to atorvastatin): mean (%CV); for increase in Cmax with filgotinib coadministration relative to statin alone: pravastatin 40 mg / rosuvastatin 10 mg, filgotinib 200 mg once daily
Safety assessment = format: in vivo, human (healthy adult participants); conditions: by treatment arm
[2] = no reference given, cited from earlier work
[3] = test system: cytochrome P450 enzymes or uridine 5’‐diphospho‐glucuronosyltransferases; conditions: in vitro; cited from earlier work
[4] = cited from earlier work
JAK1 = conditions: human whole blood assay; cited from earlier work
[5] = clinical trials and postmarketing surveillance; cited from earlier work
[6] = 2-hydroxy-atorvastatin after atorvastatin 40 mg alone, n = 25, median (Q1-Q3)
[7] = 2-hydroxy-atorvastatin, atorvastatin + filgotinib vs atorvastatin alone
[8] = atorvastatin 40 mg + filgotinib 200 mg once daily, n = 26
[9] = atorvastatin 40 mg alone, n = 25
[10] = atorvastatin + filgotinib vs atorvastatin alone
[11] = both, human, plasma, oral, 40 mg
[12] = both, human, plasma, oral, 10 mg
[13] = rosuvastatin + filgotinib vs rosuvastatin alone

Compound: CC(C)c1c(C(=O)Nc2ccccc2)c(-c2ccccc2)c(-c2ccc(F)cc2)n1CC[C@@H](O)C[C@@H](O)CC(=O)O [Atorvastatin]
participants with treatment‐emergent AE related to study drug, n (%) (Safety assessment): 3 (11.5%)
headache, n [%] (Safety assessment; all mild or moderate): 2 [7.7%]

Compound: O=C(Nc1nc2cccc(-c3ccc(CN4CCS(=O)(=O)CC4)cc3)n2n1)C1CC1 [Filgotinib]
participants with treatment‐emergent AE related to study drug, n (%) (Safety assessment): 8 (30.8%)
headache, n [%] (Safety assessment; all mild or moderate): 5 [19.2%]
nausea, n [%] (Safety assessment; all mild or moderate): 3 [11.5%]
accumulation in plasma following multiple once-daily dosing of filgotinib [2]: does not accumulate
interaction with cytochrome P450 enzymes or UGTs [3]: do not interact
effect on QT interval [4]: not affect QT interval

Compound: Nc1nc2cccc(-c3ccc(CN4CCS(=O)(=O)CC4)cc3)n2n1 [GS‐829845]
reduced potency relative to filgotinib (JAK1): ≈ 10 fold
time to achieve steady-state plasma concentrations ([2]; multiple once-daily dosing of filgotinib): ≈ 4 days
accumulation in plasma following multiple once-daily dosing of filgotinib [2]: approximately 2 fold
interaction with cytochrome P450 enzymes or UGTs [3]: do not interact
effect on QT interval [4]: not affect QT interval

More lines, main results first:

t1/2 [1, 6]: 9.1 (7.1‐10.9) h
tmax [1, 6]: 2.0 (1.5‐4.1) h
AUCinf GLSM Ratio (90% CI) [1, 7]: 1.11 (1.02‐1.22)
AUClast GLSM Ratio (90% CI) [1, 7]: 1.12 (1.02‐1.23)
Cmax GLSM Ratio (90% CI) [1, 7]: 0.98 (0.81‐1.19)
AUCinf (molar ratio of 2‐hydroxy‐atorvastatin to atorvastatin) [1, 8]: 1.6 (26.3)
Cmax (molar ratio of 2‐hydroxy‐atorvastatin to atorvastatin) [1, 8]: 0.8 (29.3)
AUCinf (molar ratio of 2‐hydroxy‐atorvastatin to atorvastatin) [1, 9]: 1.3 (35.1)
Cmax (molar ratio of 2‐hydroxy‐atorvastatin to atorvastatin) [1, 9]: 0.7 (43.9)
AUCinf (molar ratio of 2‐hydroxy‐atorvastatin to atorvastatin) GLSM Ratio (90% CI) [1, 10]: 1.22 (1.15‐1.29)
Cmax (molar ratio of 2‐hydroxy‐atorvastatin to atorvastatin) GLSM Ratio (90% CI) [1, 10]: 1.19 (1.06‐1.33)
Compound: CC(C)c1c(C(=O)Nc2ccccc2O)c(-c2ccccc2)c(-c2ccc(F)cc2)n1CCC(O)CC(O)CC(=O)O (stereo not shown) [2‐Hydroxy‐Atorvastatin, 2‐hydroxy‐atorvastatin]

AUC(0-inf) [1, 11]: 201 ng·h/mL
AUC(0-t) [1, 11]: 200 ng·h/mL
tmax [1, 11]: 1 h
half-life ([1]; both, human, plasma, oral, t1/2, pravastatin 40 mg (cocktail) + filgotinib 200 mg once daily, n = 26, mean (standard deviation)): 6.57 h
half-life ([1]; both, human, plasma, oral, t1/2, pravastatin 40 mg (cocktail) + filgotinib 200 mg once daily, n = 26, median (Q1-Q3)): 5.6 h
increase in Cmax with filgotinib coadministration relative to statin alone [1]: 25%
AUClast GLSM Ratio (90% CI) ([1]; pravastatin + filgotinib vs pravastatin alone): 1.22 (1.05‐1.41)
Compound: CC[C@H](C)C(=O)O[C@H]1C[C@H](O)C=C2C=C[C@H](C)[C@H](CC[C@@H](O)C[C@@H](O)CC(=O)O)[C@H]21 [Pravastatin]

AUC(0-inf) [1, 12]: 66 ng·h/mL
Cmax [1, 12]: 7.5 ng/mL
half-life ([1]; both, human, plasma, oral, t1/2, rosuvastatin 10 mg (cocktail) + filgotinib 200 mg once daily, n = 26, median (Q1-Q3)): 15.4 h
increase in Cmax with filgotinib coadministration relative to statin alone [1]: 68%
tmax ([1]; rosuvastatin 10 mg alone (cocktail), n = 25, median (Q1-Q3)): 3.0 (2.0‐4.0) h
AUCinf GLSM Ratio (90% CI) [1, 13]: 1.42 (1.30‐1.57)
AUClast GLSM Ratio (90% CI) [1, 13]: 1.46 (1.32‐1.62)
Cmax GLSM Ratio (90% CI) [1, 13]: 1.68 (1.43‐1.97)
Compound: CC(C)c1nc(N(C)S(C)(=O)=O)nc(-c2ccc(F)cc2)c1/C=C/[C@@H](O)C[C@@H](O)CC(=O)O [Rosuvastatin]
myopathy related to rosuvastatin, patients [5]: ≤ 0.03%
